Measurements as given in ChEMBL document CHEMBL3217726, “Asymmetric synthesis of potent chroman-based Rho kinase (ROCK-II) inhibitors” (Medchemcomm, 2011).

How the values were obtained:
[1] = target: Rho-associated protein kinase 2 (Homo sapiens, UniProt O75116); test: Inhibition of ROCK2 (unknown origin) after 4 hrs by HTRF assay
[2] = Inhibition of PKA (unknown origin) after 70 mins by luminescence assay; design: species or system Homo sapiens
[3] = target: Serine/threonine-protein kinase MRCK alpha (Homo sapiens, UniProt Q5VT25); test: Inhibition of MRCK-alpha (unknown origin) using LCB-AKRRRLSSLRA-NH2 as substrate after 75 mins by luminescence assay
Serine/threonine-protein kinase MRCK alpha, sequence (Q5VT25 whole entry): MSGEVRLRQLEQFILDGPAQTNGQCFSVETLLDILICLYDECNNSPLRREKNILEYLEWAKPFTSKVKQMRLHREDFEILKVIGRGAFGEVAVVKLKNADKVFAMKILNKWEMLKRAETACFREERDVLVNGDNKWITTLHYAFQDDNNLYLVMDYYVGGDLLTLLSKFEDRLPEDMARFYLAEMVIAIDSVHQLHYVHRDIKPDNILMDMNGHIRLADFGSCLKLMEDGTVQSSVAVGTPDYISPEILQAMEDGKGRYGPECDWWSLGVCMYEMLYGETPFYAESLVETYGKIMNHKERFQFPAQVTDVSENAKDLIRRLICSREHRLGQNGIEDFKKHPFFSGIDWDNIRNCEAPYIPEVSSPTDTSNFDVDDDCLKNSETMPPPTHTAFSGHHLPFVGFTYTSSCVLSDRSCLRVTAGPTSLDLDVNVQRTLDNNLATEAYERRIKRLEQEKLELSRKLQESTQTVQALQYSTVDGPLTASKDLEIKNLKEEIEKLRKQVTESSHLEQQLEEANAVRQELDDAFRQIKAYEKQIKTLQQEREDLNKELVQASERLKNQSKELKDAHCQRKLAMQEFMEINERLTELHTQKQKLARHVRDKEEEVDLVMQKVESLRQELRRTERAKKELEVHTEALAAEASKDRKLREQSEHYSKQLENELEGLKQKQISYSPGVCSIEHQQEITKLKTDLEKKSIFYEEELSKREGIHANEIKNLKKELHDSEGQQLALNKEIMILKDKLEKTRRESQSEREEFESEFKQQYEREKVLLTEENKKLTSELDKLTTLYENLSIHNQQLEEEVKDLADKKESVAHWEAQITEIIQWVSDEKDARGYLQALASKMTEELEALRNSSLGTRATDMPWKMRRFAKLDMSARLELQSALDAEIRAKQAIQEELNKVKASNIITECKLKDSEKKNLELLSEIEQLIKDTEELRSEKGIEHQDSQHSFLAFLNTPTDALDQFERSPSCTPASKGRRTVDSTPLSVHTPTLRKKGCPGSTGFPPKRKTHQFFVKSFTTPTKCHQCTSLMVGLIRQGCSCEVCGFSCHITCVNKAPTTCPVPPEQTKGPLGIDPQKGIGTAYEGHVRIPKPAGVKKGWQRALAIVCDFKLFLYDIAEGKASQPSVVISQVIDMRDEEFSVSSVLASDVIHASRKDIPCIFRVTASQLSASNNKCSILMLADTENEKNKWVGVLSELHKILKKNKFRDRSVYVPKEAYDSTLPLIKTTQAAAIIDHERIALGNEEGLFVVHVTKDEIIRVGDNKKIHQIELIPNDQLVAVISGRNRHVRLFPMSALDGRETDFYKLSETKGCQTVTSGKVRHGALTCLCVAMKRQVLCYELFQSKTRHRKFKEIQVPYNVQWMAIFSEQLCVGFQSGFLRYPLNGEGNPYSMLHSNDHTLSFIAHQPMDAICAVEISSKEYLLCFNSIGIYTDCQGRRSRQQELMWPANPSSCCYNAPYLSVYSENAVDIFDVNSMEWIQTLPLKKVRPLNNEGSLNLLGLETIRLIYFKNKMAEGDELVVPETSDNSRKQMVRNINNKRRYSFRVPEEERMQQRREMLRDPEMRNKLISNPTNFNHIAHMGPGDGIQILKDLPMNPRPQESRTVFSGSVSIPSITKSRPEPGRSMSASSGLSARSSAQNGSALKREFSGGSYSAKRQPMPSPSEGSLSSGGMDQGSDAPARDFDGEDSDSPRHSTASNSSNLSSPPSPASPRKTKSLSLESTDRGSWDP

[4] = target: Rho-associated protein kinase 2 (Rattus norvegicus, UniProt Q62868); test: Inhibition of ROCK2-mediated myosin light chain bis-phosphorylation in rat A7r5 cells after 1 hr by TO-PRO-3 iodide staining-based assay; assay type: cell-based
Rho-associated protein kinase 2 (Rattus norvegicus, UniProt Q62868), sequence (Q62868 whole entry): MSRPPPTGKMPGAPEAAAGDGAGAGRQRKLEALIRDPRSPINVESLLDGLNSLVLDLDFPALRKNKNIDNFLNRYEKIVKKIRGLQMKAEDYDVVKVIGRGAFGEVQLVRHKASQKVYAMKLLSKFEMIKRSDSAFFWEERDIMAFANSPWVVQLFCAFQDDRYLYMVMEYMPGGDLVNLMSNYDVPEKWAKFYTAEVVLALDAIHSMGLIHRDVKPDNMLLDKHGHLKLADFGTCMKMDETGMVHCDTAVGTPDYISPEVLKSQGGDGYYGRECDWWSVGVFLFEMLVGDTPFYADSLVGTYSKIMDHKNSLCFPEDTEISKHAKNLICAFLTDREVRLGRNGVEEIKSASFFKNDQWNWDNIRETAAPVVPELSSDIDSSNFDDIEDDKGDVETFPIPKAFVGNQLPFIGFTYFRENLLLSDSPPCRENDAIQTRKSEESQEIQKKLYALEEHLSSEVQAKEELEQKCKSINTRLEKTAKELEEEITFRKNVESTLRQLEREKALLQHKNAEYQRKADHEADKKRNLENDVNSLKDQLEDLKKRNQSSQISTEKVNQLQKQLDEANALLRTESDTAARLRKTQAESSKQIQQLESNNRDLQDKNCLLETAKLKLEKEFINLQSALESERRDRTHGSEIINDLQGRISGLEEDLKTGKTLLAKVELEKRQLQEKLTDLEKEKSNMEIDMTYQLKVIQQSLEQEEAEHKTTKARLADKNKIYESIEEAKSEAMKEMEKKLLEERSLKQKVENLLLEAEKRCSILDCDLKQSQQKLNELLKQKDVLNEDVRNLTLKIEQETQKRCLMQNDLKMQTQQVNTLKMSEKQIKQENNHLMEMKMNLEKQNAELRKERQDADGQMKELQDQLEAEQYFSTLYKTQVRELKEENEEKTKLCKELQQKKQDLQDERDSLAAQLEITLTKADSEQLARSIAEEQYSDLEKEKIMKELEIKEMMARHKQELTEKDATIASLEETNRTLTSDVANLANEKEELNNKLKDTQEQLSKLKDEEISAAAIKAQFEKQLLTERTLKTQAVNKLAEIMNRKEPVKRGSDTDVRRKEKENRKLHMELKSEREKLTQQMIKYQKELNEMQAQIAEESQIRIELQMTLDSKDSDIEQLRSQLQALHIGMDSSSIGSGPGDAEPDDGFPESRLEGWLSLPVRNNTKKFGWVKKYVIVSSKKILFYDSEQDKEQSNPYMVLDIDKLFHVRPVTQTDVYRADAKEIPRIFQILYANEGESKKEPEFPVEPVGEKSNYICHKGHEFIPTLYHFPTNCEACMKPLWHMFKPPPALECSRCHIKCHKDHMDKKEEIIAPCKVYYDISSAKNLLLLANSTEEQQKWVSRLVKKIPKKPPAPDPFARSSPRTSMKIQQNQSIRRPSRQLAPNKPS

[5] = organism: Homo sapiens; test: Selectivity ratio of IC50 for PKA (unknown origin) to IC50 for ROCK2 (unknown origin)
[6] = organism: Homo sapiens; test: Selectivity ratio of IC50 for MRCK-alpha (unknown origin) to IC50 for ROCK2 (unknown origin)

Rho-associated protein kinase 2 (Homo sapiens, UniProt O75116), sequence (O75116 whole entry): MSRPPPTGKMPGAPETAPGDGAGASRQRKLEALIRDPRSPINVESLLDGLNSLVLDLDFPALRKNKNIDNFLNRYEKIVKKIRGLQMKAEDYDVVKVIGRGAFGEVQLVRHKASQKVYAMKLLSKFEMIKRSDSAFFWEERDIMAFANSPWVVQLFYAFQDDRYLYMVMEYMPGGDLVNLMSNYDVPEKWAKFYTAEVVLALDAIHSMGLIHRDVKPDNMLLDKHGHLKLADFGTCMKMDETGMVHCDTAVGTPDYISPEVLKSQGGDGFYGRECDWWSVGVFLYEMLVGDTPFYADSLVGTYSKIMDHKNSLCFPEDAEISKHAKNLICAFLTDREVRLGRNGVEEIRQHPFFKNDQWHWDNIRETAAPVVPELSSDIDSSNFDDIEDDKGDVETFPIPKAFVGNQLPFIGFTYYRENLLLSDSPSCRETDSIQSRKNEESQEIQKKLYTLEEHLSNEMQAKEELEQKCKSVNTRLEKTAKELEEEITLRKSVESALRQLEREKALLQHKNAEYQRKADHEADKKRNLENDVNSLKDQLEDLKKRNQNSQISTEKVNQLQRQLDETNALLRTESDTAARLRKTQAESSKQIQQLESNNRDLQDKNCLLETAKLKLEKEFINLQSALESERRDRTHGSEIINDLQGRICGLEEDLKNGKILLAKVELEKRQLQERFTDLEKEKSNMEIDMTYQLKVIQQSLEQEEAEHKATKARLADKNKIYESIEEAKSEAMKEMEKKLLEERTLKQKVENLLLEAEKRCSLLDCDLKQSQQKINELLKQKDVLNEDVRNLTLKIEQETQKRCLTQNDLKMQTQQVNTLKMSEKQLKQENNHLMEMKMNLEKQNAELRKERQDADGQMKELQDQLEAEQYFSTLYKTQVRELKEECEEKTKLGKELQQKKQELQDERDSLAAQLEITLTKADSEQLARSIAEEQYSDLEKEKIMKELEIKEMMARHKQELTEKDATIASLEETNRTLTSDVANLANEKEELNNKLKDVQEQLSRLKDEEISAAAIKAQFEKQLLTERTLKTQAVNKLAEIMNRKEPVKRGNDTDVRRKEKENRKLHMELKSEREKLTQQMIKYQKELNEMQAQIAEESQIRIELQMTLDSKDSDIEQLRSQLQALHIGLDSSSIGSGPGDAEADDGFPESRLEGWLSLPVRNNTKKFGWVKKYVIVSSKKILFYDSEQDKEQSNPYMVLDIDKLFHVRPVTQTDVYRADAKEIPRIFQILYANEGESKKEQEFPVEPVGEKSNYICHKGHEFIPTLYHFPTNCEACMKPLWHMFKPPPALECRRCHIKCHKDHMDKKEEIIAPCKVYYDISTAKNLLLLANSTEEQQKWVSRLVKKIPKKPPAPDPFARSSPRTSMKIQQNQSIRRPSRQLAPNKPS

SMILES	IC50 [1] [nM]	IC50 [2] [nM]	IC50 [3] [nM]	IC50 [4] [nM]	Ratio IC50 [5]	Ratio IC50 [6]
COc1ccc2c(c1)C[C@@H](C(=O)Nc1ccc(-c3cn[nH]c3)cc1OCCN1CCCC1)CO2	30	> 20000	> 20000	411	–	–
COc1ccc2c(c1)C[C@@H](C(=O)Nc1ccc(-c3cn[nH]c3)cc1OCCN(C)C)CO2	–	> 20000	–	43	–	–
COc1ccc2c(c1)C[C@@H](C(=O)Nc1ccc(-c3cn[nH]c3)cc1OCCCO)CO2	35	> 20000	–	519	–	–
COc1ccc2c(c1)C[C@@H](C(=O)Nc1ccc(-c3cn[nH]c3)cc1O[C@H]1CCN(C)C1)CO2	34	> 20000	–	900	–	–
COc1ccc2c(c1)C[C@@H](C(=O)Nc1ccc(-c3cn[nH]c3)cc1O[C@@H]1CCN(C)C1)CO2	14	> 20000	> 20000	32	–	–

The next compounds have a lower IC50 [2] than those just listed; values first:

IC50 [1] [nM]	IC50 [2] [nM]	IC50 [3] [nM]	IC50 [4] [nM]	Ratio IC50 [5]	Ratio IC50 [6]	SMILES
< 1	9600	1270	< 4	> 9500	> 1200	COc1ccc2c(c1)C[C@H](C(=O)Nc1ccc(-c3cn[nH]c3)cc1OCCN1CCCC1)CO2
< 1	7380	294	< 4	–	–	COc1ccc2c(c1)C[C@H](C(=O)Nc1ccc(-c3cn[nH]c3)cc1O[C@H]1CCN(C)C1)CO2
< 1	3460	261	< 4	–	–	COc1ccc2c(c1)C[C@H](C(=O)Nc1ccc(-c3cn[nH]c3)cc1O[C@@H]1CCN(C)C1)CO2
–	1740	–	< 4	–	–	COc1ccc2c(c1)C[C@H](C(=O)Nc1ccc(-c3cn[nH]c3)cc1OCCN(C)C)CO2
< 1	652	74	< 4	–	–	COc1ccc2c(c1)C[C@H](C(=O)Nc1ccc(-c3cn[nH]c3)cc1OCCCO)CO2
